Experimental data reported in patent US20240041859A1, “METHODS OF TREATING AND PREVENTING KIDNEY DISEASE” (Washington University, priority 2020, published 2024).

Columns and labels:
wild-type (HK2) cells = experiment: centrosome clustering inhibitors on wild-type cells; type: cell-based
Description: (§1) Since this approach worked in ADPKD cells, mouse models were subsequently used to test the efficacy of the inhibitors in vivo.

PKD1^RC/RC mice [1] = experiment: slow-onset ADPKD mouse model, sixty-day treatment followed by three-month washout; type: in vivo
Description: To test the inhibitors, a slow-onset mouse model of ADPKD was needed that would allow for an extended period of time to treat these mice with the centrosome clustering inhibitors. The widely used slow-onset ADPKD model called the PKD1^RC/RC mouse (Hopp et al, JCI, 2012) was chosen for the small molecule inhibitor tests. These mice develop cysts slowly, such that kidney size increases around 6 months of age, and kidney function declines—as indicated by elevated blood-urea nitrogen (BUN) levels—around 9 months of age. The mice also show extensive cystogenesis as they age. […] Thus, this model was ideal for testing the centrosome clustering inhibitors. Using the slow-onset ADPKD model, the optimal effective time-course for inhibition of centrosome clustering using CCB02 and PJ-34 can be determined. Example 1 describes treatment at timepoints (e.g., beginning at six months of age, beginning at nine months, and up to eleven months of age) and for periods of time (e.g., every other day for sixty days or two months, every two days for five months). […] PKD1^RC/RC mice were administered centrosome clustering inhibitor CCB02 beginning at nine months and up to eleven months of age (see e.g., FIG. 12A). CCB02 was administered by gavage every other day for sixty days (see e.g., FIG. 8). The treatment was arrested for three months, and animals were monitored for three additional months to determine if cysts returned once the compounds are no longer administered.

CPAP-tubulin interaction = conditions: binding to tubulin, competing for the CPAP binding site of P-tubulin; cited from earlier work
PKD1^RC/RC mice [2] = experiment: slow-onset ADPKD mouse model, five-month treatment from six months of age; type: in vivo
Description: To test the inhibitors, a slow-onset mouse model of ADPKD was needed that would allow for an extended period of time to treat these mice with the centrosome clustering inhibitors. The widely used slow-onset ADPKD model called the PKD1^RC/RC mouse (Hopp et al, JCI, 2012) was chosen for the small molecule inhibitor tests. These mice develop cysts slowly, such that kidney size increases around 6 months of age, and kidney function declines—as indicated by elevated blood-urea nitrogen (BUN) levels—around 9 months of age. The mice also show extensive cystogenesis as they age. […] Thus, this model was ideal for testing the centrosome clustering inhibitors. Using the slow-onset ADPKD model, the optimal effective time-course for inhibition of centrosome clustering using CCB02 and PJ-34 can be determined. Example 1 describes treatment at timepoints (e.g., beginning at six months of age, beginning at nine months, and up to eleven months of age) and for periods of time (e.g., every other day for sixty days or two months, every two days for five months). PKD1^RC/RC mice were treated with the inhibitors beginning at six months of age—at a stage when their kidneys have yet to dramatically increase in size and show functional decline (see e.g., FIG. 8). Centrosome clustering inhibitor CCB02 was administered by gavage every two days for a total of five months. Also included in the analysis was the only FDA-approved drug for ADPKD, tolvaptan. […] Blood and urine were collected at one-month intervals to monitor kidney function (see e.g., FIG. 8).

pkd1-null (WT9-12) cells = experiment: centrosome clustering inhibitors on ADPKD cell line; type: cell-based; conditions: for mitotic progression / spindle assembly checkpoint (SAC) and cell death of cells with CA: cells with CA; for centrosome clustering in cells with CA: pkd1-null (WT9-12) cells
Description: as §1

[3] = annually; cited from earlier work
[4] = five months treatment vs two-month scheme

## COc1ncc2cc3ccccc3nc2c1C#N [CCB02]
wild-type (HK2) cells
  normal mitotic spindle formation in cells with normal centrosome number: not impacting normal mitotic spindle formation
PKD1^RC/RC mice [1]; gavage every other day for sixty days, compared to untreated mice
  cyst formation at eleven months: reduction in cyst formation
PKD1^RC/RC mice [1]; three months post-washout
  BUN: no increase
  cyst re-formation: cysts did not reform
  fibrosis: fibrosis was not evident
  serum creatinine: no increase
CPAP-tubulin interaction
  IC50: 689 nM
PKD1^RC/RC mice [2]; five months treatment
  cyst formation: better results in comparison to the FDA-approved drug tolvaptan
  fibrosis markers: significant reduction in fibrosis markers
PKD1^RC/RC mice [2]; [4]
  effect on cystogenesis: even greater effect on cystogenesis
  effect on renal fibrosis: even greater effect on renal fibrosis
pkd1-null (WT9-12) cells
  mitotic progression: delay in mitotic progression
  spindle assembly checkpoint (SAC) and cell death of cells with CA: activation of the spindle assembly checkpoint (SAC), leading to cell death
  centrosome clustering in cells with CA: inhibited centrosome clustering

## CN(C)CC(=O)Nc1ccc2[nH]c(=O)c3ccccc3c2c1.Cl [PJ-34]
wild-type (HK2) cells
  normal mitotic spindle formation in cells with normal centrosome number: not impacting normal mitotic spindle formation
pkd1-null (WT9-12) cells
  mitotic progression: delay in mitotic progression
  spindle assembly checkpoint (SAC) and cell death of cells with CA: activation of the spindle assembly checkpoint (SAC), leading to cell death
  centrosome clustering in cells with CA: inhibited centrosome clustering

## Cc1ccccc1C(=O)Nc1ccc(C(=O)N2CCCC(O)c3cc(Cl)ccc32)c(C)c1 (centres unmarked) [tolvaptan]
PKD1^RC/RC mice [2]; five months treatment
  fibrosis markers: significant reduction in fibrosis markers
[3]
  reduction of the rate of decline in renal function: 2%-3%
